Reference: PMC9127750, “Structure-based design of CDC42 effector interaction inhibitors for the treatment of cancer” (Cell reports, 2022)

System: WM3248 melanoma cells, 486 antibodies
Assay: Reverse phase protein arrays (RPPA);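 for RPPA ACC1.R.C: ratio of treated to vehicle (0 µM) normalized linear protein signal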;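 for RPPA AMPK.a2 pS345.R.V: ratio of treated to vehicle (0 µM) normalized linear protein signal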;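 for RPPA AMPKa pT172.R.C: ratio of treated to vehicle (0 µM) normalized linear protein signal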;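 for RPPA ASNS.R.V: ratio of treated to vehicle (0 µM) normalized linear protein signal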
Format: cell-based, Human
Conditions: 5 uM
From the text: Pellets were snap frozen in liquid nitrogen and shipped to MD Anderson Cancer Center core RPPA facility for RPPA analysis (Table S5). Three biological replicates for each sample were generated.
Nomenclatures on the RPPA heatmaps: name_of_antibody.species_of_antibody.status_of_antibody. V - antibody validated; C - validation of antibody in progress; Q - antibody nonspecific; E – under evaluation; antibodies raised in M - mouse, G - goat, R - rabbit, or T - rat.

Compound: CN(C)c1cccc(Nc2cc(-c3ccccc3)nc(C3CCNCC3)n2)c1 [ARN22089, N1,N1-dimethyl-N3-(6-phenyl-2-(piperidin-4-yl)pyrimidin-4-yl)benzene-1,3-diamine]
- RPPA EMA.M.C (Average): 1.019
- RPPA ENY2.M.C (Average): 0.945
- RPPA ER.a.R.V (Average): 1.031
- RPPA ER.a_pS118.R.V (Average): 1.194
- RPPA ERCC1.R.C (Average): 0.974
- RPPA ERCC5.R.C (Average): 0.991
- RPPA ERRalpha.R.V (Average): 1.000
- RPPA EVI1.R.V (Average): 0.976
- RPPA Elk1_pS383.R.C (Average): 1.029
- RPPA Enolase.2.R.V (Average): 1.011
- RPPA EphA2.R.V (Average): 0.963
- RPPA EphA2_pS897.R.C (Average): 0.963
- RPPA Erk5.R.V (Average): 1.061
- RPPA Ets.1.R.V (Average): 0.910
- RPPA FABP5.R.C (Average): 0.807
- RPPA FAK.R.C (Average): 1.005
- RPPA FAK_pY397.R.V (Average): 1.015
- RPPA FANCD2.R.V (Average): 1.011
- RPPA FASN.R.V (Average): 0.986
- RPPA FGF.basic.R.C (Average): 0.990
- RPPA FN14.R.C (Average): 1.084
- RPPA FOXM1.R.V (Average): 1.005
- RPPA FTO.R.V (Average): 0.940
- RPPA Fibronectin.R.V (Average): 0.998
- RPPA FoxO3a_pS318_S321.R.C (Average): 0.976
- RPPA G6PD.R.V (Average): 0.982
- RPPA GATA3.M.V (Average): 0.852
- RPPA GATA6.R.V (Average): 0.999
- RPPA GCLC.R.C (Average): 1.009
- RPPA GCLM.R.V (Average): 0.973
- RPPA GCN5L2.R.V (Average): 1.028
- RPPA GGPS1.M.V (Average): 0.917
- RPPA GRB2.R.V (Average): 1.049
- RPPA GRB7.R.V (Average): 1.025
- RPPA GSK.3a.b.M.V (Average): 0.977
- RPPA GSK.3a.b_pS21_S9.R.V (Average): 0.983
- RPPA Gab2.R.V (Average): 1.019
- RPPA Gli1.R.C (Average): 1.002
- RPPA Gli3.R.C (Average): 0.909
- RPPA Glucocorticoid.Receptor.R.V (Average): 1.019
- RPPA Glutamate.D1.2.R.V (Average): 0.907
- RPPA Glutaminase.R.C (Average): 0.909
- RPPA Granzyme.B.R.V (Average): 1.098
- RPPA Grp75.R.C (Average): 0.983
- RPPA Gys_pS641.R.V (Average): 1.021
- RPPA H2AX_pS139.R.C (Average): 1.019
- RPPA H2AX_pS140.M.C (Average): 0.923
- RPPA HER2.M.V (Average): 0.962
- RPPA HER2_pY1248.R.V (Average): 1.025
- RPPA HER3_pY1289.R.C (Average): 0.983
- RPPA HES1.R.V (Average): 1.187
- RPPA X4E.BP1.R.V (Average): 1.200
- RPPA X4E.BP1_pS65.R.V (Average): 1.011
- RPPA X4E.BP1_pT37_T46.R.V (Average): 1.016
- RPPA X14.3.3.zeta.R.V (Average): 0.987
- RPPA X14.3.3βR.V (Average): 1.006
- RPPA X14.3.3εM.C (Average): 0.962
- RPPA X53BP1.R.V (Average): 0.978
- RPPA b.Actin.R.C (Average): 0.929
- RPPA b.Catenin.R.V (Average): 0.915
- RPPA b.Catenin_pT41_S45.R.V (Average): 1.024
- RPPA c.Abl.R.V (Average): 1.084
- RPPA c.Abl_pY412.R.C (Average): 1.056
- RPPA c.IAP2.R.C (Average): 1.003
- RPPA eEF2.R.C (Average): 0.913
- RPPA eEF2K.R.V (Average): 0.916
- RPPA eIF4E.R.V (Average): 1.118
- RPPA eIF4E_pS209.R.V (Average): 1.025
- RPPA eIF4G.R.C (Average): 1.047
- RPPA level HLA.DQA1.R.V (Average): 0.948
- RPPA level HLA.DR.DP.DQ.DX.R.C (Average): 0.928
- RPPA level HMHA1.R.V (Average): 1.133
- RPPA level HNRNPK.R.V (Average): 0.988
- RPPA level HSP27.M.C (Average): 1.008
- RPPA level HSP27_pS82.R.V (Average): 1.113
- RPPA level HSP60.R.V (Average): 1.017
- RPPA level HSP70.R.C (Average): 1.003
- RPPA level Hexokinase.I.R.C (Average): 0.909
- RPPA level Hexokinase.II.R.V (Average): 0.992
- RPPA level Hif.1αR.C (Average): 1.051
- RPPA level Histone.H3.R.V (Average): 0.963
- RPPA level Histone.H3_pS10.R.V (Average): 0.786
- RPPA level IGF1R_pY1135_Y1136.R.V (Average): 1.035
- RPPA level IGFBP2.R.V (Average): 0.875
- RPPA level IGFBP3.M.V (Average): 0.957
- RPPA level IGFRb.R.C (Average): 1.062
- RPPA level IL.6.R.C (Average): 1.050
- RPPA level IMP3.R.C (Average): 0.997
- RPPA level IR.b.R.C (Average): 1.131
- RPPA level IRF.1.R.V (Average): 1.000
- RPPA level IRF.3.R.V (Average): 1.007
- RPPA level IRS1.R.V (Average): 1.078
- RPPA level IRS2.R.C (Average): 0.971
- RPPA level JAB1.M.C (Average): 0.973
- RPPA level JNK2.R.V (Average): 0.889
- RPPA level JNK_pT183_Y185.R.C (Average): 1.026
- RPPA level Jak2.R.V (Average): 1.011
- RPPA level KAP1.R.V (Average): 0.915
- RPPA level KEAP1.R.V (Average): 0.914
- RPPA level LC3A.B.R.C (Average): 0.914
- RPPA level LCN2.R.V (Average): 1.165
- RPPA level LDHA.R.C (Average): 0.789
- RPPA level LRP6_pS1490.R.V (Average): 1.065
- RPPA level Lasu1.R.V (Average): 0.902
- RPPA level Lck.R.V (Average): 0.925
- RPPA level Lyn.R.V (Average): 0.878
- RPPA level MACC1.R.V (Average): 1.021
- RPPA level MAPK_pT202_Y204.R.C (Average): 1.079
- RPPA level MCT4.R.V (Average): 0.958
- RPPA level MDM2_pS166.R.V (Average): 0.899
- RPPA level MEK1.R.V (Average): 1.584
- RPPA level MEK1_pS217_S221.R.V (Average): 1.125
- RPPA level MERIT40.R.C (Average): 0.975
- RPPA level METTL3.R.V (Average): 0.920
- RPPA level MIF.R.C (Average): 1.010
- RPPA level MIG6.R.V (Average): 1.024
- RPPA level MITF.R.V (Average): 0.967
- RPPA level MLH1.M.V (Average): 0.943
- RPPA level MLKL.R.V (Average): 0.967
- RPPA level MMP2.R.V (Average): 0.995
- RPPA level MMP14.R.V (Average): 0.964
- RPPA level MR1.M.C (Average): 1.033
- RPPA level MRAP.R.C (Average): 1.061
- RPPA level MSH2.R.C (Average): 0.932
- RPPA level MSH6.R.C (Average): 0.925
- RPPA level MSI2.R.C (Average): 1.004
- RPPA level MTCO1.M.V (Average): 0.944
- RPPA level MTSS1.M.C (Average): 0.998
- RPPA level Mcl.1.R.V (Average): 1.076
- RPPA level MelanA.R.C (Average): 1.025
- RPPA level Melanoma.gp100.R.C (Average): 1.061
- RPPA level Merlin.R.C (Average): 0.894
- RPPA level Midkine.R.V (Average): 1.001
- RPPA level Mitofusin.1.R.V (Average): 1.053
- RPPA level Mitofusin.2.R.V (Average): 1.013
- RPPA level mTOR.R.V (Average): 1.016
- RPPA level mTOR_pS2448.R.C (Average): 1.025
- c.Jun_pS73.R.V RPPA level (Average): 0.983
- c.Kit.R.V RPPA level (Average): 0.895
- c.Met_pY1234_Y1235.R.V RPPA level (Average): 1.062
- c.Myc.R.C RPPA level (Average): 1.010
- cGAS.R.V RPPA level (Average): 1.020
- cdc2_pY15.R.C RPPA level (Average): 1.200
- RPPA A.Raf.R.V (B.1): 0.964
- RPPA A.Raf_pS299.R.C (B.1): 1.002
- RPPA ACC1.R.C (B.1): 1.160
- RPPA ACC_pS79.R.V (B.1): 0.974
- RPPA ACSL1.R.V (B.1): 1.052
- RPPA ACVRL1.R.C (B.1): 1.027
- RPPA ADAR1.M.V (B.1): 0.990
- RPPA ALKBH5.R.V (B.1): 1.061
- RPPA AMPK.a2_pS345.R.V (B.1): 0.982
- RPPA AMPKa.R.C (B.1): 1.010
- RPPA AMPKa_pT172.R.C (B.1): 0.679
- RPPA ARID1A.R.C (B.1): 0.955
- RPPA ASNS.R.V (B.1): 1.050
- RPPA ATM.R.V (B.1): 1.017
- RPPA ATM_pS1981.R.V (B.1): 1.023
- RPPA ATP5A.M.C (B.1): 1.186
- RPPA ATP5H.R.V (B.1): 1.203
- RPPA ATR.R.V (B.1): 1.027
- RPPA ATRX.R.C (B.1): 0.816
- RPPA ATR_pS428.R.C (B.1): 0.959
